Test results from US4450269A, “Mono-5-substituted-3-chloro-4H-1,2,6-thiadiazin-4-one antifungal agents” (FMC Corporation, priority 1980, dated 1984).
Read-outs that look alike come from different tables or passages of the source.

Tests used:
Pyricularia oryzae [1] = assay type: cell-based; conditions: PO, 48 hours
Phytophthora infestans = assay type: cell-based; conditions: PI, 48 hours
Venturia inaequalis = test: Spore germination test; assay type: cell-based; conditions: VI, 48 hours
Description: VI = Venturia inaequalis
(§1) The test chemical was dissolved or suspended in acetone in an amount such that 0.8 ml of the resulting suspension or solution, mixed with 40 ml water agar produced a water agar solution containing 40, 10, 2.5 and 1 ppm of test chemical. The resulting agar solution, at 50° C., was then divided equally between two sterile petri dishes, each having four separated quadrants, and allowed to solidify. […] quadrants of each dish were flooded with 0.1 ml of a spore suspension in sterile water. Spores of two pathogens, Erysiphe polygoni and Uromyes phaseoli, from infected plant leaves, were brushed on the remaining two quadrants. The tests were then incubated 48 hours, at 24° C.
(§2) Readings were then taken and the percentage of germinated spores calculated. From this percentage, a spore germination rating was assigned as follows: […]

Erysiphe polygoni = test: Spore germination test; assay type: cell-based; conditions: EP, 48 hours
Description: as §1, §2

Uromyces phaseoli = test: Spore germination test; assay type: cell-based; conditions: UP, 48 hours
Description: as §1, §2

Botrytis cinerea = test: Spore germination test; assay type: cell-based; conditions: BC, 48 hours
Description: as §1, §2

Alternaria solani [2] = test: Spore germination test; assay type: cell-based; conditions: AS, 48 hours
Description: as §1, §2

Cladosporium cucumerinum [3] = test: Spore germination test; assay type: cell-based; conditions: CC, 48 hours
Description: CC = Cladosporium cucumerinum
as §1, §2

Helminthosporium oryzae = test: Mycelial growth test; conditions: Bipolaris oryzae, 72 h, read-out: Percent Fungus Growth Inhibition
Pythium ultimum = test: Mycelial growth test; assay type: cell-based; conditions: Globisporangium ultimum, 72 h, PU, read-out: Percent Fungus Growth Inhibition
Rhizoctonia solani = test: Mycelial growth test; assay type: cell-based; conditions: Rhizoctonia solani, 72 h, RS, read-out: Percent Fungus Growth Inhibition
Source text: | RS = Rhizoctonia solani

Fusarium solani = test: Mycelial growth test; assay type: cell-based; conditions: Fusarium solani, 72 h; for inhibition at 5 ppm / inhibition at 10 ppm / inhibition at 20 ppm: PS, 72 hours, read-out: Percent Fungus Growth Inhibition; for inhibition at 40 ppm: read-out: Percent Fungus Growth Inhibition, PS, 40 ppm, 72 hours
Alternaria solani [4] = test: Mycelial growth test; assay type: cell-based; conditions: Alternaria solani, 72 h, AS, read-out: Percent Fungus Growth Inhibition
Sclerotinia fructicola = test: Mycelial growth test; assay type: cell-based; conditions: Sclerotinia, 72 h, SF, read-out: Percent Fungus Growth Inhibition
Source text: | SF = Sclerotinia fructicola

Pyricularia oryzae [5] = test: microbe, parasite or virus in culture; assay type: cell-based; conditions: Pyricularia oryzae, 72 h
Cladosporium cucumerinum [6] = test: Mycelial growth test; assay type: cell-based; conditions: Cladosporium cucumerinum, CC, read-out: Percent Fungus Growth Inhibition
Source text: |CC = Cladosporium cucumerinum

CCCCNC(=O)n1c(NC(=O)OC)nc2ccccc21 [Benomyl, reference compound]
Spore Germination Rating (Pyricularia oryzae [1]; 1.0 ppm): 4 (80-100)
Spore Germination Rating (Pyricularia oryzae [1]; 2.5 ppm): 4 (80-100)
Spore Germination Rating (Pyricularia oryzae [1]; 10 ppm): 3 (60-80)
Spore Germination Rating (Pyricularia oryzae [1]; 40 ppm): 0 (0-10)
Spore Germination Rating (Phytophthora infestans; 1.0 ppm): 2 (40-60)
Spore Germination Rating (Phytophthora infestans; 2.5 ppm): 2 (40-60)
Spore Germination Rating (Phytophthora infestans; 10 ppm): 0 (0-10)
Spore Germination Rating (Phytophthora infestans; 40 ppm): 1 (10-40)
Spore Germination Rating (Venturia inaequalis; 1.0 ppm): 3 (60-80)
Spore Germination Rating (Venturia inaequalis; 2.5 ppm): 3 (60-80)
Spore Germination Rating (Venturia inaequalis; 10 ppm): 0 (0-10)
Spore Germination Rating (Venturia inaequalis; 40 ppm): 0 (0-10)
Spore Germination Rating (Erysiphe polygoni; 1.0 ppm): 2 (40-60)
Spore Germination Rating (Erysiphe polygoni; 2.5 ppm): 2 (40-60)
Spore Germination Rating (Erysiphe polygoni; 10 ppm): 0 (0-10)
Spore Germination Rating (Erysiphe polygoni; 40 ppm): 0 (0-10)
Spore Germination Rating (Uromyces phaseoli; 1.0 ppm): 4 (80-100)
Spore Germination Rating (Uromyces phaseoli; 2.5 ppm): 1 (10-40)
Spore Germination Rating (Uromyces phaseoli; 10 ppm): 1 (10-40)
Spore Germination Rating (Uromyces phaseoli; 40 ppm): 0 (0-10)
Spore Germination Rating (Botrytis cinerea; 1.0 ppm): 4 (80-100)
Spore Germination Rating (Botrytis cinerea; 2.5 ppm): 4 (80-100)
Spore Germination Rating (Botrytis cinerea; 10 ppm): 4 (80-100)
Spore Germination Rating (Botrytis cinerea; 40 ppm): 4 (80-100)
Spore Germination Rating (Alternaria solani [2]; 1.0 ppm): 4 (80-100)
Spore Germination Rating (Alternaria solani [2]; 2.5 ppm): 4 (80-100)
Spore Germination Rating (Alternaria solani [2]; 10 ppm): 4 (80-100)
Spore Germination Rating (Alternaria solani [2]; 40 ppm): 4 (80-100)
Spore Germination Rating (Cladosporium cucumerinum [3]; 1.0 ppm): 4 (80-100)
Spore Germination Rating (Cladosporium cucumerinum [3]; 2.5 ppm): 4 (80-100)
Spore Germination Rating (Cladosporium cucumerinum [3]; 10 ppm): 3 (60-80)
Spore Germination Rating (Cladosporium cucumerinum [3]; 40 ppm): 0 (0-10)

O=C1C2CC=CCC2C(=O)N1SC(Cl)(Cl)Cl (centres unmarked) [Captan, reference compound]
inhibition at 5 ppm (Helminthosporium oryzae): 18%
inhibition at 10 ppm (Helminthosporium oryzae): 46%
inhibition at 20 ppm (Helminthosporium oryzae): 62%
inhibition at 40 ppm (Helminthosporium oryzae): 65%
inhibition at 5 ppm (Pythium ultimum): 0%
inhibition at 10 ppm (Pythium ultimum): 0%
inhibition at 20 ppm (Pythium ultimum): 0%
inhibition at 40 ppm (Pythium ultimum): 0%
inhibition at 5 ppm (Rhizoctonia solani): 0%
inhibition at 10 ppm (Rhizoctonia solani): 0%
inhibition at 20 ppm (Rhizoctonia solani): 0%
inhibition at 40 ppm (Rhizoctonia solani): 0%
inhibition at 5 ppm (Fusarium solani): 19%
inhibition at 10 ppm (Fusarium solani): 33%
inhibition at 20 ppm (Fusarium solani): 48%
inhibition at 40 ppm (Fusarium solani): 44%

N#Cc1c(Cl)c(Cl)c(Cl)c(C#N)c1Cl [Chlorothalonil, reference compound]
inhibition at 5 ppm (Alternaria solani [4]; 5 ppm): 44%
inhibition at 10 ppm (Alternaria solani [4]; 10 ppm): 50%
inhibition at 20 ppm (Alternaria solani [4]; 20 ppm): 38%
inhibition at 40 ppm (Alternaria solani [4]; 40 ppm): 75%
inhibition at 5 ppm (Helminthosporium oryzae): 50%
inhibition at 10 ppm (Helminthosporium oryzae): 59%
inhibition at 20 ppm (Helminthosporium oryzae): 73%
inhibition at 40 ppm (Helminthosporium oryzae): 95%
inhibition at 5 ppm (Sclerotinia fructicola; 5 ppm): 67%
inhibition at 10 ppm (Sclerotinia fructicola; 10 ppm): 70%
inhibition at 20 ppm (Sclerotinia fructicola; 20 ppm): 76%
inhibition at 40 ppm (Sclerotinia fructicola; 40 ppm): 82%
inhibition at 5 ppm (Pyricularia oryzae [5]; read-out: Percent Fungus Growth Inhibition, PO, 5 ppm, 72 hours): 26%
inhibition at 10 ppm (Pyricularia oryzae [5]; read-out: Percent Fungus Growth Inhibition, PO, 10 ppm, 72 hours): 15%
inhibition at 20 ppm (Pyricularia oryzae [5]; read-out: Percent Fungus Growth Inhibition, PO, 20 ppm, 72 hours): 41%
inhibition at 40 ppm (Pyricularia oryzae [5]; read-out: Percent Fungus Growth Inhibition, PO, 40 ppm, 72 hours): 48%
inhibition at 5 ppm (Cladosporium cucumerinum [6]; 72 h, 5 ppm): 63%
inhibition at 10 ppm (Cladosporium cucumerinum [6]; 72 h, 10 ppm): 63%
inhibition at 40 ppm (Cladosporium cucumerinum [6]; 72 h, 40 ppm): 96%
inhibition at 20 ppm (Cladosporium cucumerinum [6]; CC20, 72 h, 20 ppm): 71%
inhibition at 5 ppm (Pythium ultimum): 0%
inhibition at 10 ppm (Pythium ultimum): 31%
inhibition at 20 ppm (Pythium ultimum): 100%
inhibition at 40 ppm (Pythium ultimum): 100%
inhibition at 5 ppm (Rhizoctonia solani): 31%
inhibition at 10 ppm (Rhizoctonia solani): 40%
inhibition at 20 ppm (Rhizoctonia solani): 53%
inhibition at 40 ppm (Rhizoctonia solani): 73%
inhibition at 5 ppm (Fusarium solani): 41%
inhibition at 10 ppm (Fusarium solani): 41%
inhibition at 20 ppm (Fusarium solani): 76%
inhibition at 40 ppm (Fusarium solani): 88%
